Source: patent publication US20100184683A1, “ANTIBACTERIAL AND ANTIFUNGAL PEPTIDES” (C3 JIAN, INC., priority 2009, published 2010)
≈ marks a conversion by molar mass, not a printed value. Where two headings read alike, the source gives them in different places. Values belong to the compound of their own block, whether it stands above or below them. Peptide text beside a SMILES is read from it.

Assays:
[1] = tested on: C. difficile; format: cell-based, Clostridium difficile
Protocol: (§1) In certain embodiments the MIC assays are performed as described herein in the Examples. For each organism, the media and growth conditions utilized is detailed in Table 8.
(§2) In certain embodiments the MIC assays are performed as follows: For each organism, the media and growth conditions utilized is detailed in Table 8.

[2] = tested on: A. baumannii; format: cell-based, Acinetobacter baumannii
Protocol: as §1, §2

[3] = tested on: P. gingivalis; format: cell-based, Porphyromonas gingivalis
Protocol: as §1, §2

[4] = tested on: C. albicans; format: cell-based, Candida albicans
Protocol: as §1, §2

[5] = tested on: A. naeslundii; format: cell-based, Actinomyces naeslundii
Protocol: as §1, §2

Compound: FELVDWLETNLGKILKSKSA [PF-522]
MIC ([1]; C. difficile, BHIS, 37° C., anaerobic, inoculum 10^5 CFU/ml, 18-24 h or 48 h): 25 µM

MIC [2]: 25 µM (≈ 89 µg/mL)
MIC [1]: 25 µM (≈ 89 µg/mL)
Compound: CC[C@H](C)[C@H](NC(=O)[C@H](CCC(=O)O)NC(=O)[C@H](CCCCN)NC(=O)[C@@H](NC(=O)[C@H](CCCCN)NC(=O)[C@H](CCC(=O)O)NC(=O)[C@H](CC(C)C)NC(=O)[C@@H](NC(=O)[C@H](CC(=O)O)NC(=O)[C@@H](NC(=O)[C@H](CCC(N)=O)NC(=O)[C@H](CCCCN)NC(=O)[C@H](CCCCN)NC(=O)[C@H](CC(N)=O)NC(=O)[C@@H](N)CCCCN)[C@@H](C)O)[C@@H](C)CC)C(C)C)C(=O)N[C@@H](CC(C)C)C(=O)N[C@@H](CC(=O)O)C(=O)N[C@@H](CCCCN)C(=O)N[C@@H](CCCCN)C(=O)N[C@@H](CCCCN)C(=O)N[C@@H](CCCCN)C(=O)N[C@H](C(=O)N[C@@H](CCCCN)C(=O)N[C@@H](CO)C(=O)N[C@H](C(=O)NCC(=O)N[C@@H](CCC(N)=O)C(=O)N[C@@H](CCCCN)C(=O)N[C@@H](CC(C)C)C(=O)N[C@@H](Cc1ccc(O)cc1)C(=O)O)C(C)C)[C@@H](C)O [PF-538] (H-KNKKQTDILEKVKEILDKKKKTKSVGQKLY-OH; N-terminus and C-terminus assumed)

MIC [3]: 50 µM (≈ 178 µg/mL)
MIC [4]: 50 µM (≈ 178 µg/mL)
MIC [5]: 25 µM (≈ 89.1 µg/mL)
Compound: CC[C@H](C)[C@H](N)C(=O)N[C@@H](CC(C)C)C(=O)N[C@@H](CC(N)=O)C(=O)N[C@@H](CCCCN)C(=O)N[C@@H](CCCCN)C(=O)N1CCC[C@H]1C(=O)N[C@@H](CCCCN)C(=O)N[C@@H](CC(C)C)C(=O)N1CCC[C@H]1C(=O)N[C@@H](CC(C)C)C(=O)N[C@@H](Cc1c[nH]c2ccccc12)C(=O)N[C@@H](CCCCN)C(=O)N[C@@H](CC(C)C)C(=O)NCC(=O)N[C@@H](CCCCN)C(=O)N[C@@H](CC(N)=O)C(=O)N[C@@H](Cc1ccc(O)cc1)C(=O)N[C@@H](Cc1ccccc1)C(=O)N[C@@H](CCCNC(=N)N)C(=O)N[C@@H](CCCNC(=N)N)C(=O)N[C@@H](Cc1ccccc1)C(=O)N[C@@H](Cc1ccc(O)cc1)C(=O)N[C@H](C(=O)N[C@@H](CC(C)C)C(=O)N1CCC[C@H]1C(=O)N[C@H](C(=O)N[C@@H](Cc1ccccc1)C(=O)N[C@@H](CC(C)C)C(=O)N[C@@H](C)C(=O)O)[C@@H](C)O)C(C)C [PF-C287] (H-ILNKKPKLPLWKLGKNYFRRFYVLPTFLA-OH; N-terminus and C-terminus assumed)
